What was measured:
[1] = target: T1, human serum albumin (HSA) (Homo sapiens, UniProt P02768); details: dose-response, 500 nM Red Mega 500, 0.2 mg/mL HSA
plasma protein = details: cited from earlier work
[2] = target: T1, human serum albumin (HSA); experiment: biochemical

T1 sequence (P02768 25-609): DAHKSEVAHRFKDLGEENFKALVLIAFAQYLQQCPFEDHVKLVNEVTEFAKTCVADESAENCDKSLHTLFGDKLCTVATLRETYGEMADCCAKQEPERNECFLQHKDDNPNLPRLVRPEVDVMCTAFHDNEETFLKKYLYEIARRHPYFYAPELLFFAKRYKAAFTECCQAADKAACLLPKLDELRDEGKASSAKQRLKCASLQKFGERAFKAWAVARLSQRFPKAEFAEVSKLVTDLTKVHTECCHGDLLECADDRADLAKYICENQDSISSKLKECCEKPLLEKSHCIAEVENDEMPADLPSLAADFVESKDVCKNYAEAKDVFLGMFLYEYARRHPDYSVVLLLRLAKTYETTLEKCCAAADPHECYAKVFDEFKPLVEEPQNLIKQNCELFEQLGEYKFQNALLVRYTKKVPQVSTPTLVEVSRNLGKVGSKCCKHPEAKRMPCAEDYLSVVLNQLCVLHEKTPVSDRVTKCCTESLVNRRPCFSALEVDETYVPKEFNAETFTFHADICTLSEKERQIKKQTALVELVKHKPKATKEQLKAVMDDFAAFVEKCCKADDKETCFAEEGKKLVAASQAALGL

CC/C(=C(/CC)c1ccc(O)cc1)c1ccc(O)cc1 [diethylstilbestrol]
efficacy of inhibition of HSA–Red Mega 500 binding [1]: weaker efficacy
plasma protein binding class (low / medium / high) (plasma protein): medium
IC50 [2]: 4.4 ± 1.9 µM

Cc1c(OCC(F)(F)F)ccnc1C[S+]([O-])c1nc2ccccc2[nH]1 (stereo not drawn) [lansoprazole]
plasma protein binding class (low / medium / high) (plasma protein): high

COc1ccc2[nH]c([S+]([O-])Cc3ncc(C)c(OC)c3C)nc2c1 (stereo not drawn) [omeprazole]
plasma protein binding class (low / medium / high) (plasma protein): high

CN1C(C(=O)Nc2ccccn2)=C(O)c2ccccc2S1(=O)=O [piroxicam]
plasma protein binding class (low / medium / high) (plasma protein): high

Source: paper PMC3959589 (Analytical and bioanalytical chemistry, 2014)
